PubChem BioAssay AID1963964 (Molecular Pharmacology Branch, DTP, NCI, 2024)

Tested on: 997726-040-R-J2-PDC tumor spheroids, viability
Test: Anticancer human tumor 997726-040-R-J2-PDC patient-derived squamous cell lung carcinoma cell line growth inhibition [PI3K]
Details: spheroids with HUVEC and MSC; for IC50: curve of first compound; for viability, T/C: stronger effect = lower value
Outline: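 Agents were dosed from a top concentration near clinical Cmax (otherwise 10 microM) in half-log decrements, alone or combined with PI3K inhibitors. The spheroids contain tumor cells plus endothelial (HUVEC) and MSC stroma; viability is measured.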

[1] = second compound 0.00316 µM, first compound 0.0316 µM
[2] = second compound 0.00316 µM, first compound 0.1 µM
[3] = second compound 0.00316 µM, first compound 0.316 µM
[4] = second compound 0.00316 µM, first compound 1 µM
[5] = second compound 0.00316 µM, first compound 3.16 µM
[6] = second compound 0.00316 µM, first compound 10 µM
[7] = second compound 0.01 µM, first compound 0.0316 µM
[8] = second compound 0.01 µM, first compound 0.1 µM
[9] = second compound 0.01 µM, first compound 0.316 µM
[10] = second compound 0.01 µM, first compound 1 µM
[11] = second compound 0.01 µM, first compound 3.16 µM
[12] = second compound 0.01 µM, first compound 10 µM
[13] = second compound 0.0316 µM, first compound 0.0316 µM
[14] = second compound 0.0316 µM, first compound 0.1 µM
[15] = second compound 0.0316 µM, first compound 0.316 µM
[16] = second compound 0.0316 µM, first compound 1 µM
[17] = second compound 0.0316 µM, first compound 3.16 µM
[18] = second compound 0.0316 µM, first compound 10 µM
[19] = second compound 0.1 µM, first compound 0.0316 µM
[20] = second compound 0.1 µM, first compound 0.1 µM
[21] = second compound 0.1 µM, first compound 0.316 µM
[22] = second compound 0.1 µM, first compound 1 µM
[23] = second compound 0.1 µM, first compound 3.16 µM
[24] = second compound 0.1 µM, first compound 10 µM
[25] = second compound 0.316 µM, first compound 0.0316 µM
[26] = second compound 0.316 µM, first compound 0.1 µM
[27] = second compound 0.316 µM, first compound 0.316 µM
[28] = second compound 0.316 µM, first compound 1 µM
[29] = second compound 0.316 µM, first compound 3.16 µM
[30] = second compound 0.316 µM, first compound 10 µM
[31] = second compound 1 µM, first compound 0.0316 µM
[32] = second compound 1 µM, first compound 0.1 µM
[33] = second compound 1 µM, first compound 0.316 µM
[34] = second compound 1 µM, first compound 1 µM
[35] = second compound 1 µM, first compound 3.16 µM
[36] = second compound 1 µM, first compound 10 µM
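Further: spheroids exposed to compounds for seven days before readout.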

CC1(C)CCC(CN2CCN(c3ccc(C(=O)NS(=O)(=O)c4ccc(NCC5CCOCC5)c([N+](=O)[O-])c4)c(Oc4cnc5[nH]ccc5c4)c3)CC2)=C(c2ccc(Cl)cc2)C1 + COc1c(OCCCN2CCOCC2)ccc2c3n(c(=NC(=O)c4cnc(N)nc4)nc12)CCN3
IC50 (second compound 0.00316 µM): 6890 nM | IC50 (second compound 0.01 µM): 4200 nM | IC50 (second compound 0.0316 µM): < 31.6 nM | IC50 (second compound 0.1 µM): < 31.6 nM | IC50 (second compound 0.316 µM): < 31.6 nM | IC50 (second compound 1 µM): < 31.6 nM | viability, T/C [1]: 75.4% | viability, T/C [2]: 77.4% | viability, T/C [3]: 74.3% | viability, T/C [4]: 81.1% | viability, T/C [5]: 78.2% | viability, T/C [6]: 36.9% | viability, T/C [7]: 62% | viability, T/C [8]: 64.6% | viability, T/C [9]: 68.4% | viability, T/C [10]: 60.7% | viability, T/C [11]: 57.4% | viability, T/C [12]: 28.9% | viability, T/C [13]: 35.3% | viability, T/C [14]: 36.5% | viability, T/C [15]: 37.8% | viability, T/C [16]: 37.7% | viability, T/C [17]: 34.3% | viability, T/C [18]: 21.2% | viability, T/C [19]: 23.1% | viability, T/C [20]: 22.9% | viability, T/C [21]: 21.8% | viability, T/C [22]: 23% | viability, T/C [23]: 20.6% | viability, T/C [24]: 9.14% | viability, T/C [25]: 4.52% | viability, T/C [26]: 6.09% | viability, T/C [27]: 3.55% | viability, T/C [28]: 3.55% | viability, T/C [29]: 3.34% | viability, T/C [30]: 2.27% | viability, T/C [31]: 1.34% | viability, T/C [32]: 1.27% | viability, T/C [33]: 0.77% | viability, T/C [34]: 0.81% | viability, T/C [35]: 1.49% | viability, T/C [36]: 1.38%

C[C@@H](NC(=O)c1ncnc(N)c1Cl)c1ncc(C(=O)Nc2cc(C(F)(F)F)c(Cl)cn2)s1 + COc1c(OCCCN2CCOCC2)ccc2c3n(c(=NC(=O)c4cnc(N)nc4)nc12)CCN3
IC50 (second compound 0.00316 µM): > 10000 nM | IC50 (second compound 0.01 µM): > 10000 nM | IC50 (second compound 0.0316 µM): < 31.6 nM | IC50 (second compound 0.1 µM): < 31.6 nM | IC50 (second compound 0.316 µM): < 31.6 nM | IC50 (second compound 1 µM): < 31.6 nM | viability, T/C [1]: 79.8% | viability, T/C [2]: 104% | viability, T/C [3]: 93.6% | viability, T/C [4]: 96.8% | viability, T/C [5]: 86% | viability, T/C [6]: 57.2% | viability, T/C [7]: 64.1% | viability, T/C [8]: 71.6% | viability, T/C [9]: 66.7% | viability, T/C [10]: 68.9% | viability, T/C [11]: 58.2% | viability, T/C [12]: 54.8% | viability, T/C [13]: 44% | viability, T/C [14]: 42.9% | viability, T/C [15]: 45.7% | viability, T/C [16]: 47.9% | viability, T/C [17]: 39.6% | viability, T/C [18]: 34.1% | viability, T/C [19]: 26.7% | viability, T/C [20]: 25.6% | viability, T/C [21]: 27.1% | viability, T/C [22]: 29.2% | viability, T/C [23]: 25.6% | viability, T/C [24]: 19.2% | viability, T/C [25]: 6.28% | viability, T/C [26]: 6% | viability, T/C [27]: 7.45% | viability, T/C [28]: 7.98% | viability, T/C [29]: 5.89% | viability, T/C [30]: 3.91% | viability, T/C [31]: 2.28% | viability, T/C [32]: 1.55% | viability, T/C [33]: 1.77% | viability, T/C [34]: 1.89% | viability, T/C [35]: 1.41% | viability, T/C [36]: 0.66%
